Data taken from ChEMBL document CHEMBL4376808, “Triphenylphosphonium Analogues of Betulin and Betulinic Acid with Biological Activity: A Comprehensive Review” (J Nat Prod, 2019).

Legend:
Type in all cases: functional, cell-based
[1] = system: HCT-116; test: Cytotoxic activity in human HCT116 cells assessed as reduction in cell viability
[2] = system: A549; test: Cytotoxic activity in human A549 cells assessed as reduction in cell viability
[3] = system: MCF7; test: Cytotoxic activity in human MCF7 cells assessed as reduction in cell viability

SMILES: C=C(C)[C@@H]1CC[C@]2(C(=O)O)CC[C@]3(C)[C@H](CC[C@@H]4[C@@]5(C)CC[C@H](OC(C)=O)C(C)(C)[C@@H]5CC[C@]43C)[C@@H]12
- IC50 [1]: 9.6 µM

SMILES: C=C(C)[C@@H]1CC[C@]2(C(=O)OCc3cn(-c4cccc(O)c4)nn3)CC[C@]3(C)[C@H](CC[C@@H]4[C@@]5(C)CCC(=O)C(C)(C)[C@@H]5CC[C@]43C)[C@@H]12
- IC50 [2]: 3.7 µM

SMILES: C=C(C)[C@@H]1CC[C@]2(C(=O)OCc3cn(-c4ccc5c(c4)OCO5)nn3)CC[C@]3(C)[C@H](CC[C@@H]4[C@@]5(C)CCC(=O)C(C)(C)[C@@H]5CC[C@]43C)[C@@H]12
- IC50 [2]: 5 µM

SMILES: C=C(C)[C@@H]1CC[C@]2(C(=O)O)CC[C@]3(C)[C@H](CC[C@@H]4[C@@]5(C)CC[C@H](C#CCN6CCCC6)C(C)(C)[C@@H]5CC[C@]43C)[C@@H]12
- IC50 [3]: 5.5 µM

SMILES: C=C(C)[C@@H]1CC[C@]2(C(=O)O)CC[C@]3(C)[C@H](CC[C@@H]4[C@@]5(C)CC/C(=N/Nc6ccc([N+](=O)[O-])cc6[N+](=O)[O-])C(C)(C)[C@@H]5CC[C@]43C)[C@@H]12
- IC50 [3]: 8.2 µM

SMILES: C=C(C)[C@@H]1CC[C@]2(C(=O)OCc3cn(-c4cccc(C(=O)O)c4)nn3)CC[C@]3(C)[C@H](CC[C@@H]4[C@@]5(C)CCC(=O)C(C)(C)[C@@H]5CC[C@]43C)[C@@H]12
- IC50 [1]: 4 µM

SMILES: C=C(C)[C@@H]1CC[C@]2(C(=O)OCc3cn(-c4ccc(O)c(C)c4)nn3)CC[C@]3(C)[C@H](CC[C@@H]4[C@@]5(C)CCC(=O)C(C)(C)[C@@H]5CC[C@]43C)[C@@H]12
- IC50 [1]: 3.5 µM
